Columns and labels:
[1] = system: complement system; assay: Dependence of PEG-8 induced CNV on complement: depletion with Cobra Venom Factor; type: in vivo, mice
Procedure: To investigate dependence of PEG-8 induced CNV on complement system activation, the complement system in the mice was depleted by intraperitoneal administration of Cobra Venom Factor. Four groups of animals were used (n=5 mice in each group). Group 1 and 2 were treated intraperitoneal with 4 U of cobra venom factor as described in the inventors' previous publication for 2 days before and every day after subretinal injections. Group 3 and 4 were injected intraperitoneal with vehicle (0.9% Sodium Chloride).
The mice were then injected with subretinal PEG-8 and investigated at day 5 after treatment. […] RPE-choroids of these mice were stained for MAC by IHC and investigated flat mounts using confocal microscopy. Areas of high MAC deposition in animals treated with saline (FIG. 4B) were found but not in CVF treated group (FIG. 4C).

[2] = system: VEGF; assay: VEGF levels by ELISA in posterior part of the eyes after PEG-8; type: in vivo, mice
[3] = system: complement system; assay: Activation of the complement system by PEG-8 in serum and RPE-choroid; type: in vivo, mice
Procedure: Activation of the complement system by PEG-8 was also studied in the RPE-choroid and in the blood. PEG-8 or saline was injected subretinally and animals were sacrificed at day 1, 3 and 5 after treatment. Total complement activation was studied in the serum. Levels of C3 split products and MAC were investigated in RPE-choroid tissue. […] PEG-8 and saline injected animals at day 3 and 5 had the same levels of total C3 (43 kDa and 23 kDA), but levels of C3 (43 kDa) were higher in PEG-8 treated animals compared to saline injected mice (FIGS. 5C, D).

[4] = system: Male C57BL/6 mice; assay: CNV induction by subretinal injection of PEG-8 (FITC-dextran perfused RPE-choroid-sclera flat mounts); type: in vivo
Procedure: Male C57BL/6 mice (7-9 weeks old) were anesthetized with Ketamine (80 mg/kg) and Xylazine (20 mg/kg) prior to subretinal injection. One eye was decompressed with 27G needle by inserting the needle through the limbus and sclera. Microinjector UMP3 equipped with Nanofil syringe 100 μL and 33G blunt needle (Word Precision Instruments) was used for injections. The needle was inserted into the incision created by decompression. Movement of the needle was stopped when light resistance was felt by operator. Solutions (single injection of 2 μL) were injected slowly for 5 seconds in the subretinal space. All manipulations were performed under visual control using microscope. Detachment of the retina was visible through the lens. The second eyes of mice were not injected.
To investigate dose dependent effect of PEG-8 (Polyethylene glycol 400) the inventors divided the animals into 7 groups: one control group (n=3 mice) which was not treated at all, group 2 (n=3 mice) received a single subretinal injection of vehicle (2 μL of 0.9% sterile sodium chloride), and five experimental groups which were injected with different doses of PEG-8: 2.0 mg, 1.0 mg, 0.5 mg, 0.25 mg and 0.125 mg. PEG-8 was dissolved in vehicle before injection. Doses of PEG-8 were delivered to the one experimental eye in 2 μL respectively. To determine optimal dose of PEG-8, the inventors performed histological examination and investigation of flat mounted RPE-choroid-sclera complexes after perfusion of animals with FITC-dextran solution at day 14 after injection.
To investigate the time course of CNV after PEG-injection, the animals were injected with 1.0 mg of PEG-8 subretinally and 5 mice from each group were sacrificed at day 1, 3, 5, 7, 14, 21, 28, and 42 post-injection. […] CNV reached maximal size at day 5 and was present until at least day 42.
To evaluate the CNV size, the animals were perfused through their heart with 0.75 ml of phosphate-buffered saline (PBS) containing 50 mg/ml of fluorescein-labeled dextran (FITC-Dextran, 2 million average mw) before they were sacrificed. The eyes were harvested and fixed for 4 hours in 10% phosphate buffered formalin and RPE-choroid-sclera flat mounts were prepared. The RPE-choroid-sclera complexes were mounted in ProLong Antifade reagent with the sclera facing down and were examined under a ZEISS LSM 510 laser confocal microscope.
Confocal microscopy of flat mounted RPE-choroids perfused with FITC-dextran was performed and investigated with semi thin (1 μm) embedded sections at day 5 after injection when CNV was fully developed. […] After PEG-8 injection, CNV was located between two layers of RPE cells in subretinal space (FIGS. 3B, D, F). No vessels originated from retina was found (FIG. 3D). 5 μm paraffin section of control (saline) and PEG-8 injected mice at day 1 were investigated, 3 and 5 after treatment. RPE cells in control groups formed single layer of cells and endothelial cells were found within choroid (FIG. 3G). Starting from day 1 after PEG-8 treatment, zones of affected RPE cell structure were discovered with increased size, irregular shape and presence of space between neighboring RPE cells (FIG. 3H). Isolectin-IB4 positively labeled cells located between affected RPE cells were found at day 1, 3 and 5 after injection (FIGS. 3H-J). Isolectin-IB4 positive had contact with choroidal Isolectin-IB4 positive capillaries and formed vessels in subretinal tissue between existing and newly formed RPE cell layers (FIG. 3J).

[5] = subretinal PEG-8, day 1, 3 and 5

| Substance | total complement activity in serum vs saline injected animals ([1]; 4 U CVF intraperitoneal, day 5 after subretinal PEG-8, p<0.05) | reduction of CNV size (area of FITC-dextran perfused vessels) ([1]; CVF intraperitoneal, PEG-8 induced CNV, day 5, p<0.05) [fold] | MAC positive fluorescence in RPE-choroid, saline treated animals compared to CVF injected mice ([1]; IHC flat mounts, day 5, p<0.05) | VEGF in intra- and extracellular fraction of proteins from posterior part of the eyes [2] | MAC levels in RPE-choroid vs saline treated animals (Western blotting) ([3]; all investigated time points (day 1, 3, 5)) | C3 split products levels in RPE-choroid vs saline injected mice ([3]; day 1 post-injection only) | levels of C3 (43 kDa) vs saline injected mice ([3]; day 3 and 5) | levels of total C3 (43 kDa and 23 kDA) vs saline ([3]; day 3 and 5) | alternative complement activity in mouse serum [3, 5] | total complement activity in mouse serum [3, 5] | CNV size and frequency compared between doses ([4]; 1.0 mg dose, day 14) | frequency of CNV ([4]; 1.0 mg subretinal, day 14 after injection) | CNV present until ([4]; 1.0 mg subretinal, time course) [days] | first signs of CNV detected ([4]; 1.0 mg subretinal, time course) [days] | time at which CNV reached maximal size ([4]; 1.0 mg subretinal, time course) [days] | damage of RPE-choroid after subretinal injection ([4]; compared to laser treatment or surgical procedures) | occurrence of CNV ([4]; doses 2.0, 1.0, 0.5, 0.25 and 0.125 mg subretinal, day 14) |
| --- | --- | --- | --- | --- | --- | --- | --- | --- | --- | --- | --- | --- | --- | --- | --- | --- | --- |
| CVF | significantly reduced | 3 | significantly higher |  |  |  |  |  |  |  |  |  |  |  |  |  |  |
| Polyethylene glycol 400 [PEG-8] |  |  |  | increase of VEGF | approximately three fold higher | three-fold increase | higher | same levels | did not affect | did not affect | largest size and frequency | 4.4 sites of CNV per eye | ≥ 42 | 3 | 5 | much smaller | CNV in all investigated groups |

Reference: patent US8470892B2, “Method of inducing neovascularization” (priority 2010, dated 2013)
